Assay results taken from patent US11439709B2, “Phospholipid ether analogs as cancer-targeting drug vehicles” (Cellectar Biosciences, Inc., priority 2014, dated 2022).

Tests used:
PC-3 (Prostate) = experiment: cells; assay type: cell-based; conditions: cell viability
Procedure: (§1) The cell lines were then measured for cell viability and reported as IC50 for each treatment.

MiaPaCa-1 (Pancreas) = experiment: cells; assay type: cell-based; conditions: cell viability
Procedure: as §1

NCI-H1299 (Lung) = experiment: cells; assay type: cell-based; conditions: NCI-HI1299 (Lung), cell viability
Procedure: as §1

Capan-2 (Pancreas) = experiment: cells; assay type: cell-based; conditions: cell viability
Procedure: as §1

HT29 (Colorectal) = experiment: cells; assay type: cell-based
Procedure: as §1

NCI-H460 (Lung) = experiment: cells; assay type: cell-based; conditions: cell viability
Procedure: as §1

HCT116 (Colorectal) = experiment: cells; assay type: cell-based
Procedure: as §1

MDA-MB-468 (Breast) = experiment: cells; assay type: cell-based; conditions: cell viability
Procedure: as §1

MDA-MB-468 cells = experiment: Annexin V / PI flow cytometry, MDA-MB-468 cells
Procedure: (§2) Annexin V and PI ([…]) staining by flow cytometry was utilized to determine percentages of live, early apoptotic, late apoptotic, and necrotic cells. In short, cells were treated with cytotoxic agents and stained with an Annexin V/P1 labeling kit (Life Technologies). Cells were analyzed on an LSRII flow cytometer (BD Biosciences). As shown in Tables 3-9, cells were classified as: Live (Annexin V negative, PI negative), Early apoptotic (Annexin V positive, PI negative), Late apoptotic (Annexin V positive, PI positive), and Necrotic. (Annexin V negative, PI positive). […] Annexin V (attached to AlexaFluor 488) is shown on the x-axis, while PI is shown on the y-axis. The lower left quadrant indicates live cells, the upper left quadrant indicates necrotic cells, the upper right quadrant indicates late apoptotic cells and the lower right quadrant indicates early apoptotic cells. Debris was eliminated from this analysis.

[1] = system: MDA-MB-468, NCI-H1299, NCI-H460, Capan-2, MiaPaCa-1, HT29, HCT116 and PC-3 cancer cell lines; experiment: Cell viability of the cancer cell line panel (result in words); assay type: cell-based; conditions: eight cancer cell lines, serial concentrations
Procedure: as §1

COLO 829 cells = experiment: Annexin V / PI flow cytometry, COLO 829 cells; assay type: cell-based
Procedure: as §2

PANC-1 cells = experiment: Annexin V / PI flow cytometry, PANC-1 cells; assay type: cell-based; conditions: GEL for 48 hours
Procedure: as §2

22RV1 cells = experiment: Annexin V / PI flow cytometry, 22RV1 cells; assay type: cell-based; conditions: GEL for 48 hours
Procedure: as §2

[2] = 1 uM, GEL for 48 hours, Table 4 titled 72 Hours
[3] = 100 nM, GEL for 48 hours, Table 5
[4] = 1 uM, GEL for 48 hours, Table 5
[5] = 100 nM, PTX for 24 hours, Table 3 titled 72 Hours
[6] = 1 uM, PTX for 24 hours, Table 3 titled 72 Hours

CC(=O)O[C@H]1C(=O)[C@@]2(C)[C@H]([C@H](OC(=O)c3ccccc3)[C@]3(O)C[C@H](OC(=O)[C@H](OC(=O)CCCC(=O)Nc4ccc(CCCCCCCCCCCCCCCCCCOP(=O)([O-])OCC[N+](C)(C)C)cc4)[C@@H](NC(=O)c4ccccc4)c4ccccc4)C(C)=C1C3(C)C)[C@]1(OC(C)=O)CO[C@@H]1C[C@@H]2O [CLR1601]
IC50 (PC-3 (Prostate)): 34.4 nM
IC50 (MiaPaCa-1 (Pancreas)): 37.3 nM
IC50 (NCI-H1299 (Lung)): 60.3 nM
IC50 (Capan-2 (Pancreas)): 56.7 nM
IC50 (HT29 (Colorectal); cell viability): 92.2 nM
IC50 (NCI-H460 (Lung)): 29.5 nM
IC50 (HCT116 (Colorectal); cell viability): 7.6 nM
IC50 (MDA-MB-468 (Breast)): 3.77 nM
Early Apoptotic (MDA-MB-468 cells; 1 uM, 48 hrs (Table 8)): 1.49 % of total cells
Late Apoptotic (MDA-MB-468 cells; 1 uM, 48 hrs (Table 8)): 6 % of total cells
Live (cell viability) (MDA-MB-468 cells; 1 uM, 48 hrs (Table 8)): 79.4 % of total cells
Necrotic (MDA-MB-468 cells; 1 uM, 48 hrs (Table 8)): 13.1 % of total cells
Early Apoptotic (MDA-MB-468 cells; 1 uM, 72 hrs): 9.8 % of total cells
Late Apoptotic (MDA-MB-468 cells; 1 uM, 72 hrs): 57.5 % of total cells
Live (cell viability) (MDA-MB-468 cells; 1 uM, 72 hrs): 17 % of total cells
Necrotic (MDA-MB-468 cells; 1 uM, 72 hrs): 15.8 % of total cells
Early Apoptotic (MDA-MB-468 cells; 5 uM, 72 hrs): 2.71 % of total cells
Late Apoptotic (MDA-MB-468 cells; 5 uM, 72 hrs): 57.9 % of total cells
Live (cell viability) (MDA-MB-468 cells; 5 uM, 72 hrs): 17.8 % of total cells
Necrotic (MDA-MB-468 cells; 5 uM, 72 hrs): 21.6 % of total cells
reduction of cancer cell line viability [1]: capable of reducing cell viability

CC(=O)O[C@H]1C(=O)[C@]2(C)[C@@H](OC(=O)NCCCC(=O)Nc3ccc(CCCCCCCCCCCCCCCCCCOP(=O)([O-])OCC[N+](C)(C)C)cc3)C[C@H]3OC[C@@]3(OC(C)=O)[C@H]2[C@H](OC(=O)c2ccccc2)[C@]2(O)C[C@H](OC(=O)[C@H](O)[C@@H](NC(=O)c3ccccc3)c3ccccc3)C(C)=C1C2(C)C [CLR1602]
reduction of cancer cell line viability [1]: not capable of significantly reducing cancer cell line viability

CC(=O)O[C@H]1C(=O)[C@@]2(C)[C@H]([C@H](OC(=O)c3ccccc3)[C@]3(O)C[C@H](OC(=O)[C@H](OC(=O)OCCCCC(=O)Nc4ccc(CCCCCCCCCCCCCCCCCCOP(=O)([O-])OCC[N+](C)(C)C)cc4)[C@@H](NC(=O)c4ccccc4)c4ccccc4)C(C)=C1C3(C)C)[C@]1(OC(C)=O)CO[C@@H]1C[C@@H]2O [CLR1603]
Early Apoptotic (MDA-MB-468 cells; 1 uM, 48 hrs (Table 8)): 1.4 % of total cells
Late Apoptotic (MDA-MB-468 cells; 1 uM, 48 hrs (Table 8)): 4.78 % of total cells
Live (cell viability) (MDA-MB-468 cells; 1 uM, 48 hrs (Table 8)): 81.4 % of total cells
Necrotic (MDA-MB-468 cells; 1 uM, 48 hrs (Table 8)): 12.4 % of total cells
Early Apoptotic (MDA-MB-468 cells; 1 uM, 72 hrs): 6.74 % of total cells
Late Apoptotic (MDA-MB-468 cells; 1 uM, 72 hrs): 49.1 % of total cells
Live (cell viability) (MDA-MB-468 cells; 1 uM, 72 hrs): 22.2 % of total cells
Necrotic (MDA-MB-468 cells; 1 uM, 72 hrs): 22 % of total cells
Early Apoptotic (MDA-MB-468 cells; 5 uM, 72 hrs): 2.65 % of total cells
Late Apoptotic (MDA-MB-468 cells; 5 uM, 72 hrs): 55.2 % of total cells
Live (cell viability) (MDA-MB-468 cells; 5 uM, 72 hrs): 19.7 % of total cells
Necrotic (MDA-MB-468 cells; 5 uM, 72 hrs): 22.5 % of total cells
reduction of cancer cell line viability [1]: capable of reducing cell viability

COC1=C2C[C@@H](C)C[C@H](OC)[C@H](O)[C@@H](C)/C=C(\C)[C@H](OC(N)=O)[C@@H](OC)/C=C\C=C(/C)C(=O)NC(=CC1=O)C2=O [GEL, geldanamycin]
Early Apoptotic (MDA-MB-468 cells; [2]): 19.6 % of total cells
Late Apoptotic (MDA-MB-468 cells; [2]): 37.9 % of total cells
Live (cell viability) (MDA-MB-468 cells; [2]): 26.2 % of total cells
Necrotic (MDA-MB-468 cells; [2]): 16.3 % of total cells
Early Apoptotic (COLO 829 cells; 100 nM, 48 hrs (Table 9)): 12.2 % of total cells
Late Apoptotic (COLO 829 cells; 100 nM, 48 hrs (Table 9)): 29 % of total cells
Live (cell viability) (COLO 829 cells; 100 nM, 48 hrs (Table 9)): 36.1 % of total cells
Necrotic (COLO 829 cells; 100 nM, 48 hrs (Table 9)): 22.7 % of total cells
Early Apoptotic (COLO 829 cells; [3]): 21.9 % of total cells
Late Apoptotic (COLO 829 cells; [3]): 40.8 % of total cells
Live (cell viability) (COLO 829 cells; [3]): 32.4 % of total cells
Necrotic (COLO 829 cells; [3]): 4.9 % of total cells
Early Apoptotic (COLO 829 cells; 1 uM, 48 hrs (Table 9)): 14.4 % of total cells
Late Apoptotic (COLO 829 cells; 1 uM, 48 hrs (Table 9)): 38.3 % of total cells
Live (cell viability) (COLO 829 cells; 1 uM, 48 hrs (Table 9)): 24.6 % of total cells
Necrotic (COLO 829 cells; 1 uM, 48 hrs (Table 9)): 22.7 % of total cells
Early Apoptotic (COLO 829 cells; [4]): 21.4 % of total cells
Late Apoptotic (COLO 829 cells; [4]): 53.7 % of total cells
Live (cell viability) (COLO 829 cells; [4]): 18.6 % of total cells
Necrotic (COLO 829 cells; [4]): 6.42 % of total cells
Early Apoptotic (PANC-1 cells; 100 nM): 4.68 % of total cells
Late Apoptotic (PANC-1 cells; 100 nM): 12.6 % of total cells
Live (cell viability) (PANC-1 cells; 100 nM): 23.3 % of total cells
Necrotic (PANC-1 cells; 100 nM): 59.4 % of total cells
Early Apoptotic (PANC-1 cells; 1 uM): 1.93 % of total cells
Late Apoptotic (PANC-1 cells; 1 uM): 12.8 % of total cells
Live (cell viability) (PANC-1 cells; 1 uM): 18.9 % of total cells
Necrotic (PANC-1 cells; 1 uM): 66.4 % of total cells
Early Apoptotic (22RV1 cells; 100 nM): 5.09 % of total cells
Late Apoptotic (22RV1 cells; 100 nM): 28.4 % of total cells
Live (cell viability) (22RV1 cells; 100 nM): 19.4 % of total cells
Necrotic (22RV1 cells; 100 nM): 47.1 % of total cells
Early Apoptotic (22RV1 cells; 1 uM): 6.22 % of total cells
Late Apoptotic (22RV1 cells; 1 uM): 19.1 % of total cells
Live (cell viability) (22RV1 cells; 1 uM): 28.1 % of total cells
Necrotic (22RV1 cells; 1 uM): 46.6 % of total cells

CC(=O)O[C@H]1C(=O)[C@@]2(C)[C@H]([C@H](OC(=O)c3ccccc3)[C@]3(O)C[C@H](OC(=O)[C@H](O)[C@@H](NC(=O)c4ccccc4)c4ccccc4)C(C)=C1C3(C)C)[C@]1(OC(C)=O)CO[C@@H]1C[C@@H]2O [Paclitaxel, paclitaxel]
IC50 (PC-3 (Prostate)): 0.9 nM
IC50 (MiaPaCa-1 (Pancreas)): 1.32 nM
IC50 (NCI-H1299 (Lung); Homo sapiens, NCI-H1299): 1.82 nM
IC50 (Capan-2 (Pancreas); Homo sapiens): 7.91 nM
IC50 (HT29 (Colorectal); Homo sapiens, HT-29, cell viability): 1.07 nM
IC50 (NCI-H460 (Lung); Homo sapiens): 1.66 nM
IC50 (HCT116 (Colorectal); Homo sapiens, HCT-116, cell viability): 0.87 nM
IC50 (MDA-MB-468 (Breast); Homo sapiens): 1.9 nM
Early Apoptotic (MDA-MB-468 cells; 100 nM, 48 hrs (Table 8)): 2.47 % of total cells
Late Apoptotic (MDA-MB-468 cells; 100 nM, 48 hrs (Table 8)): 5.54 % of total cells
Live (cell viability) (MDA-MB-468 cells; 100 nM, 48 hrs (Table 8)): 77.9 % of total cells
Necrotic (MDA-MB-468 cells; 100 nM, 48 hrs (Table 8)): 14.1 % of total cells
Early Apoptotic (MDA-MB-468 cells; [5]): 5.9 % of total cells
Late Apoptotic (MDA-MB-468 cells; [5]): 31.4 % of total cells
Live (cell viability) (MDA-MB-468 cells; [5]): 53.8 % of total cells
Necrotic (MDA-MB-468 cells; [5]): 8.89 % of total cells
Early Apoptotic (MDA-MB-468 cells; 1 uM, 48 hrs (Table 8)): 1.97 % of total cells
Late Apoptotic (MDA-MB-468 cells; 1 uM, 48 hrs (Table 8)): 9.18 % of total cells
Live (cell viability) (MDA-MB-468 cells; 1 uM, 48 hrs (Table 8)): 73.3 % of total cells
Necrotic (MDA-MB-468 cells; 1 uM, 48 hrs (Table 8)): 15.6 % of total cells
Early Apoptotic (MDA-MB-468 cells; [6]): 5.5 % of total cells
Late Apoptotic (MDA-MB-468 cells; [6]): 34.8 % of total cells
Live (cell viability) (MDA-MB-468 cells; [6]): 48.9 % of total cells
Necrotic (MDA-MB-468 cells; [6]): 10.8 % of total cells
